Measured values from PMC7594025, “Synthesis, Docking, 3-D-Qsar, and Biological Assays of Novel Indole Derivatives Targeting Serotonin Transporter, Dopamine D2 Receptor, and Mao-A Enzyme: In the Pursuit for Potential Multitarget Directed Ligands” (Molecules, 2020).

Experiments:
rat MAO-A = molecular target: T1, rat MAO-A (Rattus norvegicus, UniProt P21396); assay: MAO-A inhibition, crude rat brain mitochondrial suspension, serotonin substrate, HPLC-ED; type: biochemical; settings: 100 µM compound; serotonin 100 µM as substrate
T1 construct: using a crude rat brain mitochondrial suspension as a source of enzyme; from tissue; host or cells: rat brain (crude mitochondrial suspension)
T1 sequence (P21396 1-526): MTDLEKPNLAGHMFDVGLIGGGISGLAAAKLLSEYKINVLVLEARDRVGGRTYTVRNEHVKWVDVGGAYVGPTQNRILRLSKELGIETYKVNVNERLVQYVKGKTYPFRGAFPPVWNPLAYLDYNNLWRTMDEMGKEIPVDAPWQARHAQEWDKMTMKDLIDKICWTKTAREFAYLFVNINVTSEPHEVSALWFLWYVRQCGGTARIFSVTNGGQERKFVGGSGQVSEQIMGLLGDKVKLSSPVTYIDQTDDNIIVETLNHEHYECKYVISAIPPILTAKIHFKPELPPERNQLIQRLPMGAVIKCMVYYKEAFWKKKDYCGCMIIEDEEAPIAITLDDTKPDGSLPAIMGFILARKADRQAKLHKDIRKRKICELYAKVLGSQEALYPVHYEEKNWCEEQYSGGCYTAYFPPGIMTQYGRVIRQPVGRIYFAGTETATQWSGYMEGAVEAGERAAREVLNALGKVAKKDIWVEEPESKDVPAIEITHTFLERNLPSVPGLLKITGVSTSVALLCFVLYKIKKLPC
Experimental: The effects of the compounds on rat MAO-A activity were studied following a previously reported methodology, using a crude rat brain mitochondrial suspension as a source of enzyme. Serotonin (100 µM) was used as the selective substrate for MAO-A. This compound and its metabolite were detected by HPLC with electrochemical detection. As an exploratory evaluation, the percentage of MAO-A inhibition in the presence of 100 µM of the different compounds was determined, with the idea of evaluating in detail those compounds showing an inhibitory activity in the range of 70–100%.

SERT = molecular target: T2, SERT (Homo sapiens, UniProt P31645); assay: SERT competitive binding assay, [3H]-paroxetine, membranes from HEK-293 clonal cell line overexpressing SERT; settings: 2 nM [3H]-paroxetine, 1 h at 27 °C; mean ± SEM of three experiments, each in triplicate; read-out: Ki SERT
T2 construct: purchased Perkin-Elmer (Boston, MA, USA) RBHSTM400UA; host or cells: HEK-293 clonal cell line
Experimental: To determine the binding of all compounds at SERT, competitive binding assays were performed according to previously reported procedures with some modifications. […] Control curve was performed with fluoxetine in the same experimental conditions. Non-specific binding was determined with 10 µM fluoxetine.
The IC50 and Ki values correspond to the results of three independent experiments, each in triplicate. All data are expressed as the mean ± SEM.

D2 receptor = molecular target: T3, D2 receptor (Homo sapiens, UniProt P14416); assay: D2 receptor competitive binding assay, [3H]-methylspiperone, membranes from CHO-K1 clonal cell line overexpressing D2 receptor; settings: 0.5 nM [3H]-methylspiperone, 2 h at 27 °C; mean ± SEM of three experiments, each in triplicate
T3 construct: purchased Perkin-Elmer (Boston, MA, USA) RBHD2CM400UA; host or cells: CHO-K1 clonal cell line
Experimental: To determine the binding of all compounds at D2 receptor, competitive binding assays were performed according to provider indications with some modifications. […] Radioactivity was counted as described before.

T3 sequence (P14416 whole entry): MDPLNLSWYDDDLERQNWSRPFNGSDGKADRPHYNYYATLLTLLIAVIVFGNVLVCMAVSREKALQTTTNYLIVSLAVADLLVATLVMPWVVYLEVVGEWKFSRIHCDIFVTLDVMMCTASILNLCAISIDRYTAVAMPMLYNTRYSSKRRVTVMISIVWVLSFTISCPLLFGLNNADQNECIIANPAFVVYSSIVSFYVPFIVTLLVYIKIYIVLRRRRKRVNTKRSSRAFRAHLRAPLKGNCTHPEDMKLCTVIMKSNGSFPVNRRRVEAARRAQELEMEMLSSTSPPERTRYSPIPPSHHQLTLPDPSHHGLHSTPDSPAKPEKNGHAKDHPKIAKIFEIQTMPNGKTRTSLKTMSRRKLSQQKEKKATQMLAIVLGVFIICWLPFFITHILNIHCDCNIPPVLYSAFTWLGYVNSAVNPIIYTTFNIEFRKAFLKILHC
T2 sequence (P31645 whole entry): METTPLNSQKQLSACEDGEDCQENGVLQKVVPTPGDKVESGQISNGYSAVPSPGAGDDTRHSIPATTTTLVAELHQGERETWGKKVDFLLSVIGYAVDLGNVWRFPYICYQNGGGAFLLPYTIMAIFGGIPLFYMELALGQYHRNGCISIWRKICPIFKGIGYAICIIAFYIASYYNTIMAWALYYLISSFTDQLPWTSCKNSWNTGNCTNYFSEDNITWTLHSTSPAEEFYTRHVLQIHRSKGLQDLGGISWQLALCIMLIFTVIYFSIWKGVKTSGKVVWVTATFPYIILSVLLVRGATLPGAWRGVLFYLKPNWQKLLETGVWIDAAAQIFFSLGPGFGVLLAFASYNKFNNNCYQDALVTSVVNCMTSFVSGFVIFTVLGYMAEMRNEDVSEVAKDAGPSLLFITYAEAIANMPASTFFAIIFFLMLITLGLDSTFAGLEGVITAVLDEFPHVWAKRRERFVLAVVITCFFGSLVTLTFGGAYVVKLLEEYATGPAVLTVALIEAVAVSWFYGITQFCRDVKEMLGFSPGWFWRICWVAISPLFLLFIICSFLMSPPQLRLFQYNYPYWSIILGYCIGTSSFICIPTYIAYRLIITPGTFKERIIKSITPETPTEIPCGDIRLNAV

SMILES	inhibition at 100 µM (rat MAO-A) [%]	melting point [°C]	Ki (SERT) [nM]	Ki (D2 receptor) [nM]
O=C(CN1CCN(CCCc2c[nH]c3ccc(F)cc23)CC1)N1CCOc2ccc(F)cc21 [Compound 7i, 1-(6-Fluoro-2,3-dihydro-benzo[b][1,4]oxazin-4-yl)-2-{4-[3-(5-fluoro-1H-3-indolyl)-propyl]-1-piperazinyl} ethanamide]	0	166.8 to 168.1	7.51 ± 0.12	1680 ± 79
O=C(CN1CCN(CCCc2c[nH]c3ccccc23)CC1)N1CCOc2cc(F)ccc21 [Compound 7b, 1-(7-Fluoro-2,3-dihydro-benzo[b][1,4]oxazin-4-yl)-2-{4-[3-(1H-3-indolyl)-propyl]-1-piperazinyl} ethanamide]	43	124 to 125.3	181 ± 20	4740 ± 131
O=C(CN1CCN(CCCc2c[nH]c3ccc(F)cc23)CC1)N1CCOc2ccc(Cl)cc21 [Compound 7j, 1-(6-Chloro-2,3-dihydro-benzo[b][1,4]oxazin-4-yl)-2-{4-[3-(5-fluoro-1H-3-indolyl)-propyl]-1-piperazinyl} ethanamide]	20	120.5 to 122.8	12.3 ± 2.31	902 ± 4
O=C(CN1CCN(CCCc2c[nH]c3ccccc23)CC1)N1CCOc2ccc(F)cc21 [Compound 7c, 1-(6-Fluoro-2,3-dihydro-benzo[b][1,4]oxazin-4-yl)-2-{4-[3-(1H-3-indolyl)-propyl]-1-piperazinyl} ethanamide]	40	123.8 to 125.1	68.8 ± 1.02	2390 ± 163
